Assay results as given in ChEMBL document CHEMBL1201862, “PubChem BioAssay data set” (2004).
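48-hour exposure; five concentrations; linearly interpolated endpoints. The concentration for 50% growth inhibition is given as GI50.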 Activity calls are given as the source filed them. Cut-off read from the data, not from the text of the source: active = GI50 up to about 1.1 µM and inactive = higher.

Experiments:
Test in all cases: DTP human tumour cell line panel, 48 h
[1] = system: 786-0
[2] = system: A498
[3] = system: A549
[4] = system: ACHN
[5] = system: BT-549
[6] = system: CAKI-1
[7] = system: CCRF-CEM
[8] = system: COLO 205
[9] = system: DU-145
[10] = system: EKVX
[11] = system: HCC 2998
[12] = system: HCT-116
[13] = system: HCT-15
[14] = system: HL-60
[15] = system: HOP-62
[16] = system: HOP-92
[17] = system: HT-29
[18] = system: Hs-578T
[19] = system: IGROV-1
[20] = system: K562
[21] = system: KM12
[22] = system: LOX IMVI
[23] = system: M14
[24] = system: MCF7
[25] = system: MDA-MB-231
[26] = system: MDA-MB-435
[27] = system: MDA-N
[28] = system: MOLT-4
[29] = system: Malme-3M
[30] = system: NCI-H226
[31] = system: NCI-H23
[32] = system: NCI-H460
[33] = system: NCI-H522
[34] = system: NCI/ADR-RES
[35] = system: OVCAR-3
[36] = system: OVCAR-4
[37] = system: OVCAR-5
[38] = system: OVCAR-8
[39] = system: PC-3
[40] = system: RPMI-8226
[41] = system: RXF 393
[42] = system: SF-268
[43] = system: SF-295
[44] = system: SF-539
[45] = system: SK-MEL-28
[46] = system: SK-MEL-2
[47] = system: SK-MEL-5
[48] = system: SK-OV-3
[49] = system: SN12C
[50] = system: SNB-19
[51] = system: SNB-75
[52] = system: SR
[53] = system: SW-620
[54] = system: T47D
[55] = system: TK-10
[56] = system: U-251
[57] = system: UACC-257
[58] = system: UACC-62
[59] = system: UO-31

Measured: GI50

C=C1c2nc3ccccc3n2C=C(c2ccc(OC)cc2)N1c1ccc(OCCN2CCCCC2)cc1
inactive: [1] 14.2 µM | [2] 35.7 µM | [3] 17.6 µM | [4] 8.24 µM | [5] 11.7 µM | [6] 13.4 µM | [7] 2.79 µM | [8] 18.7 µM | [9] 13.1 µM | [10] 40.9 µM | [11] 16 µM | [12] 5.83 µM | [14] 3.58 µM | [15] 35.6 µM | [16] 28.1 µM | [17] 20 µM | [18] 11.2 µM | [19] 12.4 µM | [20] 4.83 µM | [21] 8 µM | [22] 7.41 µM | [23] 14.2 µM | [24] 9.16 µM | [25] 19.8 µM | [26] 8.69 µM | [27] 19.7 µM | [28] 2.58 µM | [29] > 48.4 µM | [30] 28.2 µM | [31] 6.32 µM | [32] 2.47 µM | [33] > 100 µM | [34] 4.73 µM | [35] 19.9 µM | [36] 11.6 µM | [37] > 74.1 µM | [38] 7.76 µM | [39] 15.2 µM | [40] 2.9 µM | [41] 27.6 µM | [42] > 30.4 µM | [43] 8.85 µM | [44] 20.2 µM | [45] 31.2 µM | [46] 22.1 µM | [47] 7.45 µM | [48] 49.1 µM | [49] 27.1 µM | [50] 11.3 µM | [51] 50.5 µM | [52] 4.44 µM | [53] 6.27 µM | [54] 26.6 µM | [55] 14.8 µM | [56] 7.59 µM | [57] 1.49 µM | [58] 20.7 µM | [59] 8.22 µM
4.74 µM: [13]

Oc1nc2cc(Cl)ccc2nc1/C(=N\Nc1ccccc1)C(O)c1ccc2c(c1)OCO2 (configuration not stated)
inactive: [1] > 100 µM | [2] > 100 µM | [3] > 100 µM | [4] > 100 µM | [5] > 100 µM | [6] > 100 µM | [7] > 100 µM | [8] > 100 µM | [9] > 100 µM | [10] > 100 µM | [11] > 100 µM | [12] > 100 µM | [14] > 100 µM | [15] > 100 µM | [16] > 100 µM | [17] > 100 µM | [18] > 100 µM | [19] > 100 µM | [20] > 100 µM | [21] > 100 µM | [22] > 100 µM | [23] > 100 µM | [24] > 100 µM | [25] > 100 µM | [26] > 100 µM | [27] > 100 µM | [28] > 100 µM | [29] > 100 µM | [30] > 100 µM | [31] > 100 µM | [32] > 100 µM | [33] > 100 µM | [34] > 100 µM | [35] > 100 µM | [36] > 100 µM | [37] > 100 µM | [38] > 100 µM | [39] > 100 µM | [40] > 100 µM | [41] > 100 µM | [42] > 100 µM | [43] > 100 µM | [44] > 100 µM | [45] > 100 µM | [46] > 100 µM | [47] > 100 µM | [48] > 100 µM | [49] > 100 µM | [50] > 100 µM | [51] > 100 µM | [52] > 100 µM | [53] > 100 µM | [54] 72.8 µM | [55] > 100 µM | [56] > 100 µM | [57] > 100 µM | [58] > 100 µM | [59] > 100 µM
> 100 µM: [13]

C/C(Cl)=N\OC(=O)Nc1ccc([N+](=O)[O-])cc1
14.1 µM: [13]
inactive: [1] 5.92 µM | [2] 15.3 µM | [3] 21.6 µM | [4] 4.73 µM | [5] 23 µM | [6] 5.21 µM | [7] 2.77 µM | [8] 2.49 µM | [9] 17.6 µM | [10] 19.3 µM | [11] 15.6 µM | [12] 7.94 µM | [14] 1.82 µM | [15] > 100 µM | [16] 2.59 µM | [17] 9.71 µM | [18] 25 µM | [19] 17.5 µM | [20] 2.02 µM | [21] 15.5 µM | [22] 5.36 µM | [23] 12.9 µM | [24] 3.08 µM | [25] 18.7 µM | [26] 18.8 µM | [27] 10.8 µM | [28] 1.92 µM | [29] 3.01 µM | [30] > 100 µM | [31] 21.5 µM | [32] 18.7 µM | [33] 1.99 µM | [34] 17.6 µM | [35] 2.12 µM | [36] 13.7 µM | [37] 16.4 µM | [38] 15.1 µM | [39] 16.2 µM | [40] 2.36 µM | [41] 16.8 µM | [42] 21 µM | [43] 16.8 µM | [44] 16.3 µM | [45] 17.2 µM | [46] 17.5 µM | [47] 17.4 µM | [48] 13.3 µM | [49] 12.4 µM | [50] 17.5 µM | [51] 16.7 µM | [52] 6.79 µM | [53] 2 µM | [54] 9.48 µM | [55] 14.7 µM | [56] 17.6 µM | [57] 16.8 µM | [58] 22.2 µM | [59] 5.6 µM
